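Grown in 96-well plates, cells were treated for 48 hours with each compound at five concentrations. Insufficient inhibition: endpoint recorded as highest concentration tested. Definition used: TGI = concentration required for complete inhibition of growth.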
Legend:
Assay in all cases: NCI anticancer screen, dose series, 48 h
NCI-H522 lung = test system: NCI-H522 lung
K-562 leukemia = test system: K-562 leukemia
RXF-631 renal = test system: RXF-631 renal
UO-31 renal = test system: UO-31 renal
ACHN renal = test system: ACHN renal
U251 CNS = test system: U251 CNS
CCRF-CEM leukemia = test system: CCRF-CEM leukemia
NCI-H23 lung = test system: NCI-H23 lung
TK-10 renal = test system: TK-10 renal
SR leukemia = test system: SR leukemia
HCT-116 colon = test system: HCT-116 colon
OVCAR-8 ovarian = test system: OVCAR-8 ovarian
SF-295 CNS = test system: SF-295 CNS
DMS 273 small cell lung = test system: DMS 273 small cell lung
HOP-62 NSCLC = test system: HOP-62 NSCLC
A549 NSCLC = test system: A549 NSCLC
M14 melanoma = test system: M14 melanoma
OVCAR-5 ovarian = test system: OVCAR-5 ovarian
HT29 colon = test system: HT29 colon
SK-OV-3 ovarian = test system: SK-OV-3 ovarian
UACC-62 melanoma = test system: UACC-62 melanoma
SF-268 CNS = test system: SF-268 CNS
NCI-H460 lung = test system: NCI-H460 lung
MOLT-4 leukemia = test system: MOLT-4 leukemia
SK-MEL-28 melanoma = test system: SK-MEL-28 melanoma
M19-MEL melanoma = test system: M19-MEL melanoma
IGROV1 ovarian = test system: IGROV1 ovarian
RXF 393 renal = test system: RXF 393 renal
EKVX NSCLC = test system: EKVX NSCLC
UACC-257 melanoma = test system: UACC-257 melanoma
HL-60(TB) leukemia = test system: HL-60(TB) leukemia
HOP-92 NSCLC = test system: HOP-92 NSCLC
A498 renal = test system: A498 renal
KM12 colon = test system: KM12 colon
SNB-19 CNS = test system: SNB-19 CNS
DMS 114 small cell lung = test system: DMS 114 small cell lung
OVCAR-4 ovarian = test system: OVCAR-4 ovarian
HCT-15 colon = test system: HCT-15 colon
HOP-18 NSCLC = test system: HOP-18 NSCLC
SN12C renal = test system: SN12C renal
NCI-H226 lung = test system: NCI-H226 lung
SK-MEL-5 melanoma = test system: SK-MEL-5 melanoma
LXFL 529 NSCLC = test system: LXFL 529 NSCLC
SK-MEL-2 melanoma = test system: SK-MEL-2 melanoma
HCC-2998 colon = test system: HCC-2998 colon
RPMI-8226 leukemia = test system: RPMI-8226 leukemia
LOX IMVI melanoma = test system: LOX IMVI melanoma
DLD-1 colon = test system: DLD-1 colon
MALME-3M melanoma = test system: MALME-3M melanoma
SF-539 CNS = test system: SF-539 CNS
SNB-78 CNS = test system: SNB-78 CNS
SNB-75 CNS = test system: SNB-75 CNS
CAKI-1 renal = test system: CAKI-1 renal
SW-620 colon = test system: SW-620 colon
786-0 renal = test system: 786-0 renal
XF 498 CNS = test system: XF 498 CNS
COLO 205 colon = test system: COLO 205 colon
KM20L2 colon = test system: KM20L2 colon

Measured: TGI

c1ccc(-c2nc3sccn3n2)cc1
not listed: OVCAR-4 ovarian | HCT-15 colon | HOP-18 NSCLC | SN12C renal | NCI-H226 lung | SK-MEL-5 melanoma | LXFL 529 NSCLC | SK-MEL-2 melanoma | HCC-2998 colon | RPMI-8226 leukemia | LOX IMVI melanoma | DLD-1 colon | MALME-3M melanoma | SF-539 CNS | SNB-78 CNS | SNB-75 CNS | CAKI-1 renal | SW-620 colon | 786-0 renal | XF 498 CNS | COLO 205 colon | KM20L2 colon
> 100 µM: all other assays above

O=C(Nc1ccc(Cl)c(Cl)c1)C(=O)Nn1c(=S)[nH]c2ccccc2c1=O
not listed: RXF-631 renal
> 100 µM: all other assays above

Reference: PubChem BioAssay (NCI)
